According to patent US20040204463A1, “N-aryl-2-oxazolidinone-5-carboxamides and their derivatives” (priority 2003, published 2004):
≈ marks a conversion by molar mass, not a printed value. Counter-ions that a name gives are not always drawn. Like-named read-outs stand apart in the source and are kept apart here.

How the values were obtained:
SPNE 9912 = test: In vitro MIC by standard agar dilution method, SPNE 9912; format: cell-based; details: read-out: SPNE 9912 MIC (Minimum Inhibitory Concentration)
Excerpt: (§1) The oxazolidinone antibacterial agents of this invention have useful activity against a variety of organisms. The in vitro activity of compounds of this invention can be assessed by standard testing procedures such as the determination of minimum inhibitory concentration (MIC) by agar dilution as described in “Approved Standard. Methods for Dilution Antimicrobial Susceptibility Tests for Bacteria That Grow Aerobically”, 3rd. ed., published 1993 by the National Committee for Clinical Laboratory Standards, Villanova, Pa., USA.
(§2) The in vitro MICs of test compounds were determined by a standard agar dilution method. A stock drug solution of each analog was prepared in the preferred solvent, usually DMSO: H2O (1:3). Serial 2-fold dilutions of each sample are made using 1.0 ml aliquots of sterile distilled water. To each 1.0 ml aliquot of drug was added 9 ml of molten Mueller Hinton agar medium. The drug-supplemented agar was mixed, poured into 15×100 mm petri dishes, and allowed to solidify and dry prior to inoculation.
(§3) Vials of each of the test organisms are maintained frozen in the vapor phase of a liquid nitrogen freezer. Test cultures are grown overnight at 35° C. on the medium appropriate for the organism. Colonies are harvested with a sterile swab, and cell suspensions are prepared in Trypticase Soy broth (TSB) to equal the turbidity of a 0.5 McFarland standard. A 1:20 dilution of each suspension was made in TSB. The plates containing the drug supplemented agar are inoculated with a 0.001 ml drop of the cell suspension using a Steers replicator, yielding approximately 10^4 to 10^5 cells per spot. The plates are incubated overnight at 35° C.
(§4) Following incubation the Minimum Inhibitory Concentration (MIC μg/ml), the lowest concentration of drug that inhibits visible growth of the organism, was read and recorded.

HINF 30063 = test: In vitro MIC by standard agar dilution method, HINF 30063; format: cell-based, H. influenzae; details: Haemophilus influenzae, read-out: HINF 30063 MIC (Minimum Inhibitory Concentration)
Excerpt: as §1, §2, §3, §4

SAUR 9213 = test: In vitro MIC by standard agar dilution method, SAUR 9213; format: cell-based, S. aureus; details: Staphylococcus aureus, read-out: SAUR 9213 MIC (Minimum Inhibitory Concentration)
Excerpt: as §1, §2, §3, §4

[1] = agar dilution, Mueller Hinton agar, incubated overnight at 35° C., lowest concentration that inhibits visible growth

Compound	MIC (SPNE 9912)	MIC (HINF 30063)	MIC (SAUR 9213)	MIC (SPNE 9912; [1])	MIC (HINF 30063; [1])	MIC (SAUR 9213; [1])
C#CCCCC(=O)N1CCN(c2ccc(N3C[C@H](CNC(C)=O)OC3=O)cc2F)CC1 [Compound 4, N-({(5S)-3-[3-Fluoro-4-(4-hex-5-ynoylpiperazin-1-yl)phenyl]-2-oxo-1,3-oxazolidin-5-yl}methyl)acetamide]	1 µg/mL (≈ 2.32 µM)	64 µg/mL (≈ 149 µM)	4 µg/mL (≈ 9.29 µM)			
CC(=O)NC[C@H]1CN(c2ccc(N3CCN(C(=O)CCCC#Cc4cccc(CN)c4)CC3)c(F)c2)C(=O)O1 [Compound 6, N-({(5S)-3-[4-(4-{6-[3-(aminomethyl)phenyl]hex-5-ynoyl}piperazin-1-yl)-3-fluorophen-yl]-2-oxo-1,3-oxazolidin-5-yl}methyl)acetamide]				1 µg/mL (≈ 1.87 µM)	16 µg/mL (≈ 29.9 µM)	2 µg/mL (≈ 3.73 µM)
CC(=O)NC[C@H]1CN(c2ccc(N3CCN(C(=O)CCCC#Cc4ccc(O)cc4)CC3)c(F)c2)C(=O)O1 [Compound 7, N-{[(5S)-3-(3-Fluoro-4-{4-[6-(4-hydroxyphenyl)hex-5-ynoyl]piperazin-1-yl}phenyl)-2-oxo-1,3-oxazolidin-5-yl]methyl}acetamide]				1 µg/mL (≈ 1.91 µM)	> 64 µg/mL	4 µg/mL (≈ 7.65 µM)
C#CCCC(=O)N1CCN(c2ccc(N3C[C@H](CNC(C)=O)OC3=O)cc2F)CC1 [Compound 8, N-[((5S)-3-{3-fluoro-4-[4-(4-pentynoyl)-1-piperazinyl]phenyl}-2-oxo-1,3-oxazolidin-5-yl)methyl]acetamide]				< 0.5 µg/mL	> 32 µg/mL	4 µg/mL (≈ 9.6 µM)
CC(=O)NC[C@H]1CN(c2ccc(N3CCN(CC#Cc4ccccc4)CC3)c(F)c2)C(=O)O1 [Compound 9, N-[((5S)-3-{3-fluoro-4-[4-(3-phenylprop-2-ynyl)piperazin-1-yl]phenyl}-2-oxo-1,3-oxazolidin-5-yl)methyl]acetamide]				2 µg/mL (≈ 4.44 µM)	16 µg/mL (≈ 35.5 µM)	4 µg/mL (≈ 8.88 µM)
CC(=O)NC[C@H]1CN(c2cc(F)c(N3CCN(C(=O)CCCC#Cc4ccc(CN)cc4)CC3)c(F)c2F)C(=O)O1 [Compound 10, N-({(5S)-3-[4-(4-{6-[4-(aminomethyl)phenyl]hex-5-ynoyl}piperazin-1-yl)-2,3,5-trifluorophenyl]-2-oxo-1,3-oxazolidin-5-yl}methyl)acetamide]				2 µg/mL (≈ 3.5 µM)	32 µg/mL (≈ 56 µM)	4 µg/mL (≈ 7 µM)
CC(=O)NC[C@H]1CN(c2cc(F)c(N3CCN(C(=O)CCCC#Cc4cccc(CN)c4)CC3)c(F)c2F)C(=O)O1 [Compound 11, N-({(5S)-3-[4-(4-{6-[3-(aminomethyl)phenyl]hex-5-ynoyl}piperazin-1-yl)-2,3,5-trifluorophenyl]-2-oxo-1,3-oxazolidin-5-yl}methyl)acetamide]				2 µg/mL (≈ 3.5 µM)	16 µg/mL (≈ 28 µM)	4 µg/mL (≈ 7 µM)
CC(=O)NC[C@H]1CN(c2ccc(N3CCN(C(=O)CCCC#Cc4ccc(/C(N)=N/O)cc4)CC3)c(F)c2)C(=O)O1.Cl [Compound 12, N-[((5S)-3-{4-[4-(6-{4-[(Z)-amino(hydroxyimino)methyl]-phenyl}hex-5-ynoyl)piperazin-1-yl]-3-fluorophenyl}-2-oxo-1,3-oxazolidin-5-yl)methyl]-acetamide hydrochloride]				2 µg/mL	> 64 µg/mL	16 µg/mL
CC(=O)NC[C@H]1CN(c2ccc(N3CCN(C(=O)CCC#Cc4ccc(C[C@H](N)C(=O)O)cc4)CC3)c(F)c2)C(=O)O1 [Compound 13, 4-{5-[4-(4-{(5S)-5-[(acetylamino)methyl]-2-oxo-1,3-oxazolidin-3-yl}-2-fluorophenyl)piperazin-1-yl]-5-oxopent-1-ynyl}-L-phenylalanine]	64 µg/mL (≈ 110 µM)	> 64 µg/mL	> 64 µg/mL			
CC(=O)NC[C@H]1CN(c2ccc(N3CCN(C(=O)CCCC#Cc4cccc(C#N)c4)CC3)c(F)c2)C(=O)O1 [Compound 14, N-{[(5S)-3-(4-{4-[6-(3-cyanophenyl)hex-5-ynoyl]piperazin-1-yl}-3-fluorophenyl)-2-oxo-1,3-oxazolidin-5-yl]methyl}acetamide]				2 µg/mL (≈ 3.76 µM)	> 64 µg/mL	8 µg/mL (≈ 15 µM)
CC(=O)NC[C@H]1CN(c2ccc(N3CCN(C(=O)CCCC#Cc4ccc(/C(C)=N/O)cc4)CC3)c(F)c2)C(=O)O1 [Compound 15, N-[((5S)-3-{3-fluoro-4-[4-(6-{4-[(1E)-N-hydroxyethan-imidoyl]-phenyl}hex-5-ynoyl)piperazin-1-yl]phenyl}-2-oxo-1,3-oxazolidin-5-yl)methyl]-acetamide, HCl salt]				2 µg/mL	> 16 µg/mL	> 16 µg/mL
CCC(=O)NC[C@H]1CN(c2ccc(C3(C)CN(C(=O)CCCC#Cc4cccc(CN)c4)C3)cc2)C(=O)O1 [Compound 16, N-({(5S)-3-[4-(1-{6-[3-(aminomethyl)phenyl]hex-5-ynoyl}-3-methylazetidin-3-yl)phenyl]-2-oxo-1,3-oxazolidin-5-yl}methyl)propan-amide]				2 µg/mL (≈ 3.87 µM)	16 µg/mL (≈ 31 µM)	16 µg/mL (≈ 31 µM)
CC(=O)NC[C@H]1CN(c2ccc(N3CCN(C(=O)CCCC#Cc4ccc(C(C)=O)cc4)CC3)c(F)c2)C(=O)O1 [Compound 17, N-{[(5S)-3-(4-{4-[6-(4-acetylphenyl)hex-5-ynoyl]piperazin-1-yl}-3-fluorophenyl)-2-oxo-1,3-oxazolidin-5-yl]methyl}acetamide]				2 µg/mL (≈ 3.65 µM)	> 64 µg/mL	> 64 µg/mL
CC(=O)NC[C@H]1CN(c2ccc(N3CCN(C(=O)CCCC#Cc4ccc(Cn5ccnc5)cc4)CC3)c(F)c2)C(=O)O1 [Compound 18, N-({(5S)-3-[3-fluoro-4-(4-{6-[4-(1H-imidazol-1-ylmethyl)phenyl]hex-5-ynoyl}piperazin-1-yl)phenyl]-2-oxo-1,3-oxazolidin-5-yl}methyl)acetamide]				2 µg/mL (≈ 3.41 µM)	> 64 µg/mL	16 µg/mL (≈ 27.3 µM)
CNCc1ccc(C#CCCCC(=O)N2CCN(c3ccc(N4C[C@H](CNC(C)=O)OC4=O)cc3F)CC2)cc1 [Compound 19, N-[((5S)-3-{3-fluoro-4-[4-(6-{4-[(methylamino)methyl]phenyl}hex-5-ynoyl)piperazin-1-yl]phenyl}-2-oxo-1,3-oxazolidin-5-yl)methyl]acetamide]				0.25 µg/mL (≈ 0.455 µM)	32 µg/mL (≈ 58.2 µM)	4 µg/mL (≈ 7.28 µM)
CC(=O)NC[C@H]1CN(c2ccc(N3CCN(C(=O)CCC#Cc4ccc(N)cc4)CC3)c(F)c2)C(=O)O1 [Compound 20, N-{[(5S)-3-(4-{4-[5-(4-aminophenyl)pent-4-ynoyl]piperazin-1-yl}-3-fluorophenyl)-2-oxo-1,3-oxazolidin-5-yl]methyl}acetamide]				2 µg/mL (≈ 3.94 µM)	64 µg/mL (≈ 126 µM)	4 µg/mL (≈ 7.88 µM)
COC(=O)[C@@H](N)Cc1ccc(C#CCCC(=O)N2CCN(c3ccc(N4C[C@H](CNC(C)=O)OC4=O)cc3F)CC2)cc1 [Compound 21, methyl 4-{5-[4-(4-{(5S)-5-[(acetylamino)methyl]-2-oxo-1,3-oxazolidin-3-yl}-2-fluorophenyl)piperazin-1-yl]-5-oxopent-1-ynyl}-L-phenylalaninate]				4 µg/mL (≈ 6.74 µM)	> 64 µg/mL	32 µg/mL (≈ 53.9 µM)
CC(=O)NC[C@H]1CN(c2ccc(N3CCN(C(=O)CCC#Cc4c[nH]c(=O)[nH]c4=O)CC3)c(F)c2)C(=O)O1 [Compound 22, N-{[(5S)-3-(4-{4-[5-(2,4-dioxo-1,2,3,4-tetrahydropyrimidin-5-yl)pent-4-ynoyl]piperazin-1-yl}-3-fluorophenyl)-2-oxo-1,3-oxazolidin-5-yl]methyl}acetamide]				4 µg/mL (≈ 7.6 µM)	32 µg/mL (≈ 60.8 µM)	32 µg/mL (≈ 60.8 µM)
CC(=O)NC[C@H]1CN(c2ccc(N3CCN(C(=O)CCCCC#Cc4ccc(CN)cc4)CC3)c(F)c2)C(=O)O1 [Compound 23, N-({(5S)-3-[4-(4-{7-[4-(aminomethyl)phenyl]hept-6-ynoyl}piperazin-1-yl)-3-fluorophenyl]-2-oxo-1,3-oxazolidin-5-yl}methyl)acetamide]				0.25 µg/mL (≈ 0.455 µM)	32 µg/mL (≈ 58.2 µM)	4 µg/mL (≈ 7.28 µM)
CC(=O)NC[C@H]1CN(c2ccc(N3CCN(C(=O)CCCCC#Cc4ccc(O)cc4)CC3)c(F)c2)C(=O)O1 [Compound 24, N-{[(5S)-3-(3-fluoro-4-{4-[7-(4-hydroxyphenyl)hept-6-ynoyl]piperazin-1-yl}phenyl)-2-oxo-1,3-oxazolidin-5-yl]methyl}acetamide]				2 µg/mL (≈ 3.73 µM)	> 64 µg/mL	8 µg/mL (≈ 14.9 µM)
CC(=O)NC[C@H]1CN(c2ccc(N3CCN(C(=O)CCCCC#Cc4cccc(O)c4)CC3)c(F)c2)C(=O)O1 [Compound 25, N-{[(5S)-3-(3-fluoro-4-{4-[7-(3-hydroxyphenyl)hept-6-ynoyl]piperazin-1-yl}phenyl)-2-oxo-1,3-oxazolidin-5-yl]methyl}acetamide]				2 µg/mL (≈ 3.73 µM)	> 64 µg/mL	8 µg/mL (≈ 14.9 µM)
